Measurements published in US12545659B2, “IRAK degraders and uses thereof” (Kymera Therapeutics, Inc., priority 2019, dated 2026).

Target: T1, IRAK4 (Homo sapiens, UniProt Q9NWZ3)
T1 construct: endogenous in cells; host or cells: OCI-LY10
T1 sequence (Q9NWZ3 1-460): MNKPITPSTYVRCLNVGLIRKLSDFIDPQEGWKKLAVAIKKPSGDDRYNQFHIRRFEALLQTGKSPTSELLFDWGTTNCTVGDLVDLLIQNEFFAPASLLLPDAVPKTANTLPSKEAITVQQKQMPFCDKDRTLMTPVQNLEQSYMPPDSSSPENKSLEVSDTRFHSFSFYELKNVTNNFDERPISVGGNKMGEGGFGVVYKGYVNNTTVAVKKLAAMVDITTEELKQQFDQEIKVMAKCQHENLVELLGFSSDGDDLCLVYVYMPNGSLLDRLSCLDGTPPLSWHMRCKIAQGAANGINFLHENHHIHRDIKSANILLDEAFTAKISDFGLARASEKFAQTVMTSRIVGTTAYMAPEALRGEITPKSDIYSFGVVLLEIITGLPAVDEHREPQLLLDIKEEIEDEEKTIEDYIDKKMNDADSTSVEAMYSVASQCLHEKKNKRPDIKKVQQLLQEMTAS
Assay: IRAK4 MSD Degradation in OCI-LY10
Format: cell-based
Details: OCI-LY10 cells, 4 hrs incubation, read-out: IRAK4 degradation in OCI-LY10 at 4 hrs: DC50
Procedure: Degradation of IRAK4 in OCI-LY10 was quantitatively measured using Meso Scale Discovery technology. […] Compounds were then added to the assay plates with a final top concentration of 1 to 10 μM in a 1:3 dilution series with total of 8 doses. The assay plates were then incubated for 4 to 24 hours at 37° C. under 5% C02. […] To prepare MSD assay plates (Meso Scale Discovery Catalog number L15XA-3), the plates were coated with […] capture antibody (mouse Anti-IRAK4 antibody [2H9], ab119942) in PBS, at 40 μL/well. […] Cell lysates were then added to MSD assay plates and the plates were incubated at room temperature for 1 hour. The plates were then washed 3 times with 150 μL/well TBST buffer and 25 μL/well primary detection antibody (rabbit Anti-IRAK4 antibody [Y279], from Abcam. Catalog number ab32511, 1 μg/mL). The assay plates were then incubated at room temperature for 1 hour, washed 3 times with 150 μL/well TBST buffer and 25 μL/well secondary detection antibody, SULFO-TAG anti-rabbit antibody were added (anti rabbit antibody from Meso Scale Discovery, Catalog number R32AB-1, 1 μg/mL). The assay plates were then incubated at room temperature for 1 hour, washed 3 times with 150 μL/well TBST buffer, and 150 μL/well MSD reading buffer (Meso Scale Discovery catalog number R92TC-2) was added. The plates were then analyzed by a MSD reader (Meso Scale Discovery, Model Quick Plex SQ 120). The data was then analyzed by software Prism 7.0 from GraphPad and the dose-depended IRAK4 degradation were fit using a three-parameter logistic equation to calculate DC50.
The letter codes for IRAK4 […] include: A (<0.05 μM); B (0.05-0.1 μM); C (0.1-0.5 μM); D (0.5-1.0 μM); and E (>1.0 μM).

Compound	DC50
Cn1c(=O)n(C2CCC(=O)NC2=O)c2ccc(C3CN(C[C@H]4CC[C@H](n5cc6cc(NC(=O)c7cccc(C(F)(F)F)n7)c(C(F)F)cc6n5)CC4)C3)cc21 (some centres unmarked) [I-264]	< 0.05 µM
Cn1c(=O)n(C2CCC(=O)NC2=O)c2cccc(CCC3CCN(C[C@H]4CC[C@H](n5cc6cc(NC(=O)c7cccc(C(F)(F)F)n7)c(C(F)F)cc6n5)CC4)CC3)c21 (some centres unmarked) [I-94]	< 0.05 µM
Cc1cccc(C(=O)Nc2cc3cn([C@H]4CC[C@H](CN(C)C5CCN(Cc6cccc7c6n(C)c(=O)n7C6CCC(=O)NC6=O)CC5)CC4)nc3cc2C(C)(C)O)n1 (some centres unmarked) [I-48]	< 0.05 µM
CN(CCCO[C@H]1C[C@H](Cc2cccc3c2n(C)c(=O)n3C2CCC(=O)NC2=O)C1)C[C@H]1CC[C@H](n2cc3cc(NC(=O)c4cccc(C(F)(F)F)n4)c(C(C)(C)O)cc3n2)CC1 (some centres unmarked) [I-85]	< 0.05 µM
Cn1c(=O)n(C2CCC(=O)NC2=O)c2cccc(N3C[C@H]4C[C@@H]3CN4C[C@H]3CC[C@H](n4cc5cc(NC(=O)c6cccc(C(F)(F)F)n6)c(C(C)(C)O)cc5n4)CC3)c21 (some centres unmarked) [I-282]	< 0.05 µM
Cn1c(=O)n(C2CCC(=O)NC2=O)c2cccc(CCN3CC4(CCN(C[C@H]5CC[C@H](n6cc7cc(NC(=O)c8cccc(C(F)(F)F)n8)c(C(C)(C)O)cc7n6)CC5)CC4)C3)c21 (some centres unmarked) [I-55]	< 0.05 µM
Cn1c(=O)n(C2CCC(=O)NC2=O)c2cccc(CN3CC4(CN(Cc5ccc(-n6cc7cc(NC(=O)c8cccc(C(F)(F)F)n8)c(C(C)(C)O)cc7n6)cc5)C4)C3)c21 (centres unmarked) [I-49]	0.05 to 0.1 µM
Cn1c(=O)n(C2CCC(=O)NC2=O)c2ccc(C3CCN(C[C@H]4CC[C@H](n5cc6cc(NC(=O)c7cccc(C(C)(C)F)n7)c(C(F)F)cc6n5)CC4)CC3)cc21 (some centres unmarked) [I-101]	< 0.05 µM

Now from value to molecule:

DC50	Compound
< 0.05 µM	CN(C[C@H]1CC[C@H](n2cc3cc(NC(=O)c4cccc(C(C)(C)C)n4)c(C(C)(C)O)cc3n2)CC1)C1CCN(Cc2cccc3c2n(C)c(=O)n3C2CCC(=O)NC2=O)CC1 (some centres unmarked) [I-235]
0.05 to 0.1 µM	Cn1c(=O)n(C2CCC(=O)NC2=O)c2cccc(CCOC3CCN(C[C@H]4CC[C@H](n5cc6cc(NC(=O)c7cccc(C(F)(F)F)n7)c(C(F)F)cc6n5)CC4)CC3)c21 (some centres unmarked) [I-266]
0.05 to 0.1 µM	COc1cc2nn([C@H]3CC[C@H](CN(C)[C@H]4CC[C@@]5(CC4)C[C@@H](Cc4cccc6c4n(C)c(=O)n6C4CCC(=O)NC4=O)C5)CC3)cc2cc1NC(=O)c1cccc(C(F)(F)F)n1 (some centres unmarked) [I-152]
< 0.05 µM	CN(C[C@H]1CC[C@H](n2cc3cc(NC(=O)c4ccccn4)c(C(C)(C)O)cc3n2)CC1)C1CCN(c2ccc3c(c2)n(C)c(=O)n3C2CCC(=O)NC2=O)CC1 (some centres unmarked) [I-82]
< 0.05 µM	COc1cc2nn([C@H]3CC[C@H](CN4CCC(c5cccc6c5n(C)c(=O)n6C5CCC(=O)NC5=O)CC4)CC3)cc2cc1NC(=O)c1cnccn1 (some centres unmarked) [I-327]
0.05 to 0.1 µM	COc1cc2nn([C@H]3CC[C@H](CN4CCC(CCCc5ccc6c(c5)n(C)c(=O)n6C5CCC(=O)NC5=O)CC4)CC3)cc2cc1NC(=O)c1cccc(C(F)(F)F)n1 (some centres unmarked) [I-145]
0.5 to 1 µM	CN(C[C@H]1CC[C@H](n2ncc3cc(NC(=O)c4cccc(C(F)(F)F)n4)c(C(C)(C)O)cc32)CC1)C1CCN(Cc2cccc3c2n(C)c(=O)n3C2CCC(=O)NC2=O)CC1 (some centres unmarked) [I-34]

Same assay, conditions: OCI-LY10 cells, 24 hrs incubation, read-out: IRAK4 degradation in OCI-LY10 at 24 hrs: DC50

Compound	DC50
CC(C)(O)c1cc2nn([C@H]3CC[C@H](CN4CCC5(CC4)CC(Nc4cccc6c4C(=O)N(C4CCC(=O)NC4=O)C6=O)C5)CC3)cc2cc1NC(=O)c1cccc(C(F)(F)F)n1 (some centres unmarked) [I-35, N-[2-[4-[[2-[[2-(2,6-dioxo-3-piperidyl)-1,3-dioxo-isoindolin-4-yl]amino]-7-azaspiro [3.5]nonan-7-yl]methyl]cyclohexyl]-6-(1-hydroxy-1-methyl-ethyl)indazol-5-yl]-6-(trifluoromethyl)pyridine-2-carboxamide]	< 0.05 µM
COc1cc2nn([C@H]3CC[C@H](CN4CC5(CC(CCNc6cccc7c6C(=O)N(C6CCC(=O)NC6=O)C7=O)C5)C4)CC3)cc2cc1-n1ccc2ccccc2c1=O (some centres unmarked) [I-286]	0.05 to 0.1 µM
CN[C@@H](C)C(=O)N[C@H](C(=O)N1CCC[C@H]1c1nc(C(=O)c2cccc(OCCCC3CC4(CCN(C[C@H]5CC[C@H](n6cc7cc(NC(=O)c8cccc(C(F)(F)F)n8)c(OC)cc7n6)CC5)CC4)C3)c2)cs1)C1CCCCC1 [I-181, N-[2-[4-[[2-[3-[3-[2-[(2S)-1-[(2S)-2-cyclohexyl-2-[[(2S)-2-(methylamino)propanoyl]amino]acetyl]pyrrolidin-2-yl]thiazole-4-carbonyl]phenoxy]propyl]-7-azaspiro[3.5]nonan-7-yl]methyl]cyclohexyl]-6-methoxy-indazol-5-yl]-6-(trifluoromethyl)pyridine-2-carboxamide]	0.5 to 1 µM
CC(C)(O)c1cc2nn([C@H]3CC[C@H](CN4CCC5(CC4)CC(Nc4cccc6c4C(=O)N(C4CCC(=O)NC4=O)C6=O)C5)CC3)cc2cc1NC(=O)c1cccc(S(F)(F)(F)(F)F)n1 (some centres unmarked) [I-291]	< 0.05 µM
O=C1CCC(N2C(=O)c3cccc(NCCCOCC4CCN(C[C@H]5CC[C@H](n6cc7cc(NC(=O)c8cccc(C(F)(F)F)n8)c(C(F)F)cc7n6)CC5)CC4)c3C2=O)C(=O)N1 (some centres unmarked) [I-33]	0.05 to 0.1 µM
COc1cc2nn([C@H]3CC[C@H](CN4CCC5(CC4)CC(CNc4cccc6c4C(=O)N(C4CCC(=O)NC4=O)C6=O)C5)CC3)cc2cc1NC(=O)c1cccc(C(C)(C)F)n1 (some centres unmarked) [I-232]	0.05 to 0.1 µM
CC(C)(O)c1cc2nn([C@H]3CC[C@H](CN4CCC5(CC4)CC(Nc4cccc6c4C(=O)N(C4CCC(=O)NC4=O)C6=O)C5)CC3)cc2cc1NC(=O)c1cccc(C(F)(F)F)n1 (some centres unmarked) [I-313]	< 0.05 µM
CC(C)(O)c1cc2nc([C@H]3CC[C@H](CN4CCC5(CC4)CC(Nc4cccc6c4C(=O)N(C4CCC(=O)NC4=O)C6=O)C5)CC3)oc2cc1NC(=O)c1cccc(C(F)(F)F)n1 (some centres unmarked) [I-183]	0.05 to 0.1 µM
COc1cc2nn([C@H]3CC[C@H](CN4CCC5(CC4)CC(CNc4cccc6c4C(=O)N(C4CCC(=O)NC4=O)C6=O)C5)CC3)cc2cc1NC(=O)c1ccccn1 (some centres unmarked) [I-273]	0.05 to 0.1 µM

Now from value to molecule:

DC50	Compound
< 0.05 µM	COc1cc2nn([C@H]3CC[C@H](CN(C)[C@H]4CC[C@H](Nc5cccc6c5C(=O)N(C5CCC(=O)NC5=O)C6=O)CC4)CC3)cc2cc1NC(=O)c1cccc(C)n1 (some centres unmarked) [I-211]
< 0.05 µM	CN(C[C@H]1CC[C@H](n2cc3cc(NC(=O)c4cccc(C(C)(C)F)n4)c(C(C)(C)O)cc3n2)CC1)[C@H]1CC[C@H](Nc2cccc3c2C(=O)N(C2CCC(=O)NC2=O)C3=O)CC1 (some centres unmarked) [I-306]
0.05 to 0.1 µM	COc1cc2nn([C@H]3CC[C@H](CN4CCC5(CC4)CC(CCNc4cccc6c4C(=O)N(C4CCC(=O)NC4=O)C6=O)C5)CC3)cc2cc1NC(=O)c1ccccn1 (some centres unmarked) [I-125]
0.05 to 0.1 µM	COc1cc2nn([C@H]3CC[C@H](CN4CCC5(CC4)CC(CCNc4cccc6c4C(=O)N(C4CCC(=O)NC4=O)C6=O)C5)CC3)cc2cc1NC(=O)c1cccc(C(C)(C)F)n1 (some centres unmarked) [I-92]
0.05 to 0.1 µM	COc1cc2nn([C@H]3CC[C@H](CN(C)[C@H]4CC[C@H](Nc5cccc6c5C(=O)N(C5CCC(=O)NC5=O)C6=O)CC4)CC3)cc2cc1NC(=O)c1cccc(S(F)(F)(F)(F)F)n1 (some centres unmarked) [I-318]
0.05 to 0.1 µM	CC(C)(O)COc1cc2nn([C@H]3CC[C@H](CN4CCC5(CC4)CC(CNc4cccc6c4C(=O)N(C4CCC(=O)NC4=O)C6=O)C5)CC3)cc2cc1NC(=O)c1cccc(C(C)(C)F)n1 (some centres unmarked) [I-118]
0.1 to 0.5 µM	COc1cc2nn([C@H]3CC[C@H](CN4CCC5(CC4)CC(CCNc4cccc6c4C(=O)N(C4CCC(=O)NC4=O)C6=O)C5)CC3)cc2cc1NC(=O)c1nc(C(F)(F)F)cs1 (some centres unmarked) [I-208]
0.1 to 0.5 µM	COc1cc2nc([C@H]3CC[C@H](CN4CC5(CC(CCNc6cccc7c6C(=O)N(C6CCC(=O)NC6=O)C7=O)C5)C4)CC3)oc2cc1NC(=O)c1cccc(C(F)(F)F)n1 (some centres unmarked) [I-180]
< 0.05 µM	CN(CCCO[C@H]1C[C@H](Nc2cccc3c2C(=O)N(C2CCC(=O)NC2=O)C3=O)C1)C[C@H]1CC[C@H](n2cc3cc(NC(=O)c4coc(-c5ccnc(NCC6CC6)c5)n4)c(C(C)(C)O)cc3n2)CC1 (some centres unmarked) [I-221]
0.05 to 0.1 µM	COc1cc2nn([C@H]3CC[C@H](CN4CCC5(CC4)CC(CCNc4cccc6c4C(=O)N(C4CCC(=O)NC4=O)C6=O)C5)CC3)c(C)c2cc1NC(=O)c1cccc(C(F)(F)F)n1 (some centres unmarked) [I-136]
0.05 to 0.1 µM	COc1cc2nn([C@H]3CC[C@H](CN(C)CCCO[C@H]4C[C@H](Nc5cccc6c5C(=O)N(C5CCC(=O)NC5=O)C6=O)C4)CC3)cc2cc1NC(=O)c1cccc(C(F)(F)F)n1 (some centres unmarked) [I-230]
